Here are results for 2 compounds from PMC12439480, “Dimeric CCK2R radiotheranostic tracers synergize with mTOR inhibition for enhanced tumor therapy” (Theranostics, 2025).

The format of data set [1] is physicochemical. To be noted: pH 7.4. On the procedure: The hydrophilicity of [^68Ga]Ga-DOTA-CCK2R-dimer and [^68Ga]Ga-DOTA-CCK-66 was assessed by determining their partition coefficients (Log D7.4) in a phosphate-buffered saline (PBS; pH 7.4)/n-octanol (1:1, v/v) system. Briefly, ~37 kBq of each radiotracer was mixed with 2 mL of the biphasic system, vortexed for 5 min, and centrifuged at 15,000 × g for 5 min. The radioactivity in 100 μL aliquots of each phase was quantified using a γ-counter (n = 5).

In the next data set the test system is AR42J tumor-bearing mice. The data set is described as follows: in vivo. More on the design: species or system BALB/c nude mice. The note with it: mouse, 1 h. In outline:
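AR42J xenografts in female BALB/c nude mice received 3.7 MBq iv of [^68Ga]Ga-DOTA-CCK2R-dimer (≈120 pmol) or [^68Ga]Ga-DOTA-CCK-66 (≈210 pmol), n = 3/group. Tissues were γ-counted at 30, 60 and 120 min p.i. and expressed as %ID/g. Blocking used 400-fold excess of lead compound co-injected, read at 1 h.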

Numbered stars: 1 amine (or outer) side, 2 acyl side, 3 side chain; on linkers, the order of the positions; unused ones are H or OH. Square brackets hold non-standard residues; d marks the D form. Side chains are listed from the residue outwards. Peptide text beside a SMILES is read from it. * marks the point of attachment. DOTA = O=C(O)CN1CCN(CC(=O)O)CCN(CC(=O)*)CCN(CC(=O)O)CC1; d(γGlu) = O=C(O)[C@@H](CCC(=O)[*:2])N[*:1]; 1Nal = N[C@@H](Cc1cccc2ccccc12)C(=O)O; NMeNle = CCCC[C@H](NC)C(=O)O; PEG4 = NCCOCCOCCOCCOCCC(=O)O

Consider `CCCC[C@@H](C(=O)N[C@@H](CC(=O)O)C(=O)N[C@@H](Cc1cccc2ccccc12)C(N)=O)N(C)C(=O)[C@H](Cc1c[nH]c2ccccc12)NC(=O)CCOCCOCCOCCOCCNC(=O)CC[C@@H](NC(=O)CC[C@H](NC(=O)CN1CCN(CC(=O)O)CCN(CC(=O)O)CCN(CC(=O)O)CC1)C(=O)N[C@H](CCC(=O)NCCOCCOCCOCCOCCC(=O)N[C@@H](Cc1c[nH]c2ccccc12)C(=O)N(C)[C@@H](CCCC)C(=O)N[C@@H](CC(=O)O)C(=O)N[C@@H](Cc1cccc2ccccc12)C(N)=O)C(=O)O)C(=O)O` [[68Ga]Ga-DOTA-CCK2R-dimer, metal not drawn] ({DOTA}-E([d(γGlu)-PEG4-Trp-NMeNle-Asp-1Nal-NH2])[d(γGlu)][PEG4]W[NMeNle]D[1Nal]-NH2), for which the logD – broadly, lipophilicity at a set pH, counting ionised and neutral species – in data set [1] was -3.01 ± 0.05.

`CCCC[C@@H](C(=O)N[C@@H](CC(=O)O)C(=O)N[C@@H](Cc1cccc2ccccc12)C(N)=O)N(C)C(=O)[C@H](Cc1c[nH]c2ccccc12)NC(=O)CCOCCOCCOCCOCCNC(=O)CC[C@@H](NC(=O)CN1CCN(CC(=O)O)CCN(CC(=O)O)CCN(CC(=O)O)CC1)C(=O)O` [[68Ga]Ga-DOTA-CCK-66, metal not drawn, reference compound] ({DOTA-d(γGlu)-PEG4}-W[NMeNle]D[1Nal]-NH2) had a logD in data set [1] of -3.03 ± 0.03. In the data set with AR42J tumor-bearing mice, this compound came in with a Bladder uptake of 1.15 ± 1.21 %ID/g, a Kidney uptake of 12.68 ± 3.71 %ID/g, a Liver uptake of 0.96 ± 0.26 %ID/g and a Stomach uptake of 1.49 ± 0.64 %ID/g.
